Experimental data as given in patent US10077236B2, “Azacyclic constrained analogs of FTY720” (The Regents of the University of California, priority 2013, dated 2018).
“Also recorded” adds a separate entry of the source.

What was measured:
[1] = Mouse heart rate by telemetry; type: in vivo; details: telemetry for 24 h after administration of anti-cancer dose
Excerpt: As previously discussed, FTY720 itself cannot be used in cancer patients because phosphorylation of FTY720 by SphKs makes FTY720-P, which acts at S1P receptors to cause bradycardia and immunosuppression (on-target effect for primary use).

[2] = test system: SphK2 null MEFs; assay: Sensitivity of SphK2 null MEFs; type: cell-based
Method: (§1) The importance of phosphorylation in the activity of compound 6 was then examined. In this study MEF knockout lines that show the same differential sensitivity to compound 6 relative to its enantiomers as leukemia cells were used (FIG. 10h). […] A phosphate and a non-phosphorylatable analog of compound 6 were then tested.

[3] = test system: patient-derived BCR-Abl+ acute lymphoblastic leukemia cells; assay: Viability of patient-derived BCR-Abl+ acute lymphoblastic leukemia cells; type: cell-based, human; details: 96 h, flow cytometry (vital dye exclusion)
Method: Finally, in FIG. 10g dose response curves are provided for studies conducted with patient-derived BCR-Abl+ acute lymphoblastic leukemia cells. Viability was measured at 96 h by flow cytometry (vital dye exclusion).

[4] = test system: Nalm-6 Ph- ALL cell line; assay: Cell viability assay, Nalm-6; type: cell-based, human; details: 72 h, vital dye exclusion and flow cytometry; read-out: Mean IC50 (+/- SEM) in cell viability assay, Nalm-6 Ph- ALL
Excerpt: (§2) Leukemia cell assays: Effects of chemical changes on ability to kill cells as observed in cell viability assays using the BCR-ABL positive human acute lymphoblastic leukemia (ALL) cell line, Sup-B15 are described. Assays using the Sup-B15 cell line were designed to determine efficacy of azacyclic constrained small molecule analogs of FTY720 in killing leukemia cells. Analogs were generated using the synthesis methods mentioned above. Sup-B15 cells were maintained at 2-3 million/mL in RPMI 1640 (by Mediatech™) supplemented with 10% fetal calf serum (by Sigma-Aldrich™), 10 mM Hepes (by Mediatech™), 55 μM β-mercaptoethanol (by Sigma-Aldrich™), 2 mM L-glutamine (by Mediatech™), and antibiotics. BV173, Nalm-6, and Blin-1 were maintained at 1-2 million/mL and CCRF-CEM at less than 500,000/mL in the same medium. BMp190 cells were created by transducing murine bone marrow cells with pMIC-p190 which expresses the p190 isoform of BCR-Abl and human CD4 from an IRES; these cells were kept at 1-2 million/mL in RPMI supplemented as above.
(§3) Flow cytometry: Much of the biological activity presented is shown through flow cytometry data. […] Here, IC50 flow cytometry assays were used. In them, viability was determined at 72 hours by vital dye exclusion [propium iodide or DAPI (4′,6-diamindino-2-phenylindole)]. To measure nutrient receptor expression following exposure to FTY720 and azacyclic constrained analogs of FTY720, surface 4F2hc expression was measured after 3 hours of drug treatment by staining 150,000 cells with phycoerythrin-conjugated mouse anti-human CD98 (by BD Biosciences™). Analysis was restricted to viable cells.
(§4) All samples for the disclosed sets of data were analyzed on a BD LSR II flow cytometer and data analyzed with FlowJo™ software (by Treestar™). IC50's were calculated and statistical tests were performed using GraphPad Prism™.

[5] = test system: SphK1 null MEFs; assay: Sensitivity of SphK1 null MEFs; type: cell-based
Method: as §1

[6] = test system: BCR-Abl+ leukemias compared to other cell types; assay: Ratio of IC50 of compound 6 (177) and its enantiomer compound 5 (39) across cell types; type: cell-based
Excerpt: Another difference between compound 6 and FTY720 or the enantiomer of compound 6, is that compound 6 has a specific and very high activity to BCR-Abl+ leukemias compared to other cell types. This trend is shown in FIG. 10d by calculating the ratio of 1050 for compound 6 (also called 177) and its enantiomer compound 5 (also called 39). If the drugs are similarly effective a ratio near 1 would be expected, and if compound 6 works better (has a lower 1050), a ratio greater than one as with SupB15s would be expected. […] Finally, it is seen that the Ph+ALL primary patient sample has a ratio greater than 1.

[7] = test system: Sup-B15 BCR-ABL positive human acute lymphoblastic leukemia (ALL) cell line; assay: Cell viability assay, Sup-B15 leukemia cells (flow cytometry, vital dye exclusion); type: cell-based; details: for cell death in combination with dasatinib: 72 h
Excerpt: as §2, §3, §4

[8] = Distribution of compound 6 and its phosphorylated form in plasma, bone marrow and spleen of mice; type: in vivo; details: normalization to total protein; tissues versus blood
Method: A study was then conducted to examine what happens to compound 6 when administered to animals. Mice were treated with 10 mg/kg doses of compound 6 (i.p.) and then the mice were sacrificed at various time points, then plasma, bone marrow, and spleen tissue were extracted to build curves. […] Indeed, the ratio of phosphorylated to unphosphorylated compound 6 in the spleen and bone marrow is close to 1:1 after i.p. administration.

[9] = test system: BV173 Ph+ ALL cell line; assay: Cell viability assay, BV173; type: cell-based, human; details: 72 h, vital dye exclusion and flow cytometry; read-out: Mean IC50 (+/- SEM) in cell viability assay, BV173 Ph+ ALL
Excerpt: as §2, §3, §4

[10] = test system: Blin-1 Ph- ALL cell line; assay: Cell viability assay, Blin-1; type: cell-based, human; details: 72 h, vital dye exclusion and flow cytometry; read-out: Mean IC50 (+/- SEM) in cell viability assay, Blin-1 Ph- ALL
Excerpt: as §2, §3, §4

CCCCCCCCc1ccc(CO[C@@H]2CN[C@@H](CO)C2)cc1.Cl [Compound 6]
effect on heart rate [1]: nor does it decrease heart rate
gain of functional activity [2]: no longer shows gain of functional activity
potency in dose response, viability [3]: more potent than FTY720 and its enantiomer, compound 39
IC50 [4]: 13.5 ± 2.4 µM
differential sensitivity to compound 6 relative to its enantiomers [5]: this difference is maintained
ratio of IC50, compound 6 versus its enantiomer compound 5 ([6]; 2 Ph+ ALL lines and BM transduced with BCR-ABL p190 fusion): greater than 1
ratio of IC50, compound 6 versus its enantiomer compound 5 ([6]; 3 Ph- ALL lines): ~1
sensitivity of non-sensitive line after p190 transduction ([6]; CCRF transduced with p190): becomes sensitized to compound 6
ratio of IC50, compound 6 versus its enantiomer compound 5 ([6]; Ph+ALL primary patient sample): greater than 1
cell killing at 72 h ([7]; 1 μM (=0.5×IC50), alone): does not kill
cell death in combination with dasatinib ([7]; 1 μM compound 6 + dasatinib 200 nM): increases cell death
cell viability at 72 h ([7]; 2 μM (1×IC50), alone): significantly reduces cell viability
cell death in combination with dasatinib ([7]; 2 μM compound 6 + dasatinib): increases cell death beyond that caused by compound 6 alone
IC50 ([7]; BCR-Abl+ SupB15 leukemia cell line, read-out: IC50): 2 µM
ability to kill leukemia cells, potency compared in words ([7]; Sup-B15 cell viability assays): activity much greater than compounds 5, 7, and 8; also recorded: enhanced anticancer activity relative to its diasteromeric congeners and to FTY720
killing compared with dasatinib ([7]; both drugs at their maximally active dose): kills better than dasatinib
tissue accumulation [8]: accumulates in tissues to higher levels than are present in blood
IC50 [9]: 3.8 ± 0.4 µM
IC50 [10]: 6.9 ± 0.3 µM
